Results on 6 compounds are retold here after paper PMC11121672, “Screening of Small-Molecule Libraries Using SARS-CoV-2-Derived Sequences Identifies Novel Furin Inhibitors” (International Journal of Molecular Sciences, 2024).

The target of one test is T1, Furin (Homo sapiens, UniProt P09958).
T1 construct: soluble Furin (sFur), truncated before its transmembrane domain (BTMD)
T1 sequence (P09958 108-715): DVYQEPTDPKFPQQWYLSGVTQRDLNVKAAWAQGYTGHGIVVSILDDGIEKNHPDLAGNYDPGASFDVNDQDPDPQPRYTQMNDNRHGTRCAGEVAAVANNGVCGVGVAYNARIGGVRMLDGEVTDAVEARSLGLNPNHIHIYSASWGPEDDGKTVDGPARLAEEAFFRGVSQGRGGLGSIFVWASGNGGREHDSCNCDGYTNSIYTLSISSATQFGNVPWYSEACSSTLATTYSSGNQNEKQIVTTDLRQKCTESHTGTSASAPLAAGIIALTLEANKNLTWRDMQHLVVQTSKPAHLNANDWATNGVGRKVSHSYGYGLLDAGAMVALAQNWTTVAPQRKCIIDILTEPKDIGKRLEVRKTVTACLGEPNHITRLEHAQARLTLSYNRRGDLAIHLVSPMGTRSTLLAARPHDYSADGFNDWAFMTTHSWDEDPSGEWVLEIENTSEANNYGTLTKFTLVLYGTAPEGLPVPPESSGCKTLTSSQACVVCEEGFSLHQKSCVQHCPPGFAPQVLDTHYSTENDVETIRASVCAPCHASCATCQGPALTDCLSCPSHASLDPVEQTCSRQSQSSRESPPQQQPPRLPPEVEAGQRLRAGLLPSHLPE
The test is described as follows: fluorogenic AMC peptide cleavage assay, soluble furin in conditioned HEK-293T medium without further purification. The format is biochemical.
The compound `Cc1ccc(N(CCC(=O)O)C2=NC(=O)C(=Cc3ccc(Br)s3)S2)cc1Cl` [P3, 3-((5-((5-Bromothiophen-2-yl)methylene)-4-oxo-4,5-dihydrothiazol-2-yl)(3-chloro-4-methylphenyl)amino)propanoic acid] gave an IC50 of 35 µM.
On the same count and under the same terms, the value for `CN(C)c1ccc(C=C2SC(N(CCC(=O)O)c3ccc(Cl)cc3)=NC2=O)cc1` [P7, 3-((4-Chlorophenyl)(5-(4-(dimethylamino)benzylidene)-4-oxo-4,5-dihydrothiazol-2-yl)amino)propanoic acid] was 62 µM.
`Cc1ccc(N(CCC(=O)O)C2=NC(=O)C(=Cc3cccs3)S2)cc1Cl` [P16, 3-((3-Chloro-4-methylphenyl)(4-oxo-5-(thiophen-2-ylmethylene)-4,5-dihydrothiazol-2-yl)amino)propanoic acid] registered an IC50 of 79 µM.

For another test, the target named is T1, Furin. The test is described as follows: fluorogenic AMC peptide cleavage assay, […] dose response, not sigmoidal. In kind it is cell-based.
Regarding `Cc1ccc(Cl)cc1N(CCC(=O)O)c1nc2c(s1)C(=O)c1ccccc1C2=O` [P5, 3-((5-Chloro-2-methylphenyl)(4,9-dioxo-4,9-dihydronaphtho[2,3-d]thiazol-2-yl)amino)propanoic acid], the “fluorogenic AMC peptide cleavage assay, 2.5-100 μg/mL dose response, not sigmoid” value is “P3, P5, P7, P9, P13, and P16—were confirmed as novel Furin inhibitors, showing typical dose-dependent activity”.
On the same count and under the same terms, the value for `O=C(O)CCN(c1ccc(Cl)cc1)c1nc2c(s1)C(=O)c1ccccc1C2=O` [P9, 3-((4-Chlorophenyl)(4,9-dioxo-4,9-dihydronaphtho[2,3-d]thiazol-2-yl)amino)propanoic acid] was “P3, P5, P7, P9, P13, and P16—were confirmed as novel Furin inhibitors, showing typical dose-dependent activity”; that for `CCOC(=O)C=C(C)n1c2c(=O)c3ccccc3c(=O)c=2oc2ccc([N+](=O)[O-])cc21` [P13, Ethyl 3-(2-nitro-6,11-dioxo-6,11-dihydro-12H-benzo[b]phenoxazin-12-yl)but-2-enoate] was “P3, P5, P7, P9, P13, and P16—were confirmed as novel Furin inhibitors, showing typical dose-dependent activity”.

By IC50 is commonly meant the concentration at which inhibition is half-maximal. A higher IC50 goes with lower potency.
